No end group written: not given here.

The results in this text go back to US10836794B2, “Group of peptides for treating female sexual dysfunction” (“IVIX” Ltd., priority 2016, dated 2020).

Data set [1] can be described thus: Stability of liquid pharmaceutical forms (peptide 0.2 %, benzalkonium chloride 0.01 %, water) during storage; single and total impurities. The data set is classed as physicochemical. An excerpt:
Investigations of the Stability of Pharmaceutical Forms Containing Peptides Having the Property of Stimulating the Genital and Sexual Functions
This experiment investigated the stability of compositions containing peptides according to the invention. The results of the investigations are illustrated by the example of several peptides according to the invention containing hydroxyproline, in particular Thr-Lys-Hyp […], Thr-Lys-Hyp-Arg-Hyp (SEQ ID NO: 13), Thr-Lys-Hyp-Arg-Hyp-Phe and Thr-Lys-Hyp-Arg-Hyp-Gly-Hyp (SEQ ID NO: 14).
The peptides described in RU2507212 were also obtained, in particular Thr-Lys-Pro, Thr-Lys-Pro-Arg-Pro (SEQ ID NO: 6), Thr-Lys-Pro-Arg-Pro-Phe (SEQ ID NO: 7) and Thr-Lys-Pro-Arg-Pro-Gly-Pro (SEQ ID NO: 1).
From the compounds obtained, a liquid pharmaceutical form (a solution) was prepared, including the peptide and the preservative benzalkonium chloride with the following ratio of components: 0.2 and 0.01 mass %, respectively, water the rest. Samples were placed in storage at two temperature regimes, namely, +4° C. and +25° C. Investigation of the stability of the peptides was carried out after 1, 3, 6, 12, and 24 months of storage. In the investigation of the samples for stability, the quantity of single impurities and the total quantity of impurities were evaluated, testifying to the degradation of the peptides. The pharmaceutical requirements of the company for impurities are: any single impurity, not more than 1.5%; total content of impurities, not more than 3.0%. If the content of impurities exceeded the above indicated values, the pharmaceutical form was deemed to have failed the test for stability.

A further data set has as its system female rats. In words: Efficacy in vivo on preclinical model (Lordoz test): proceptive behavior of ovarioectomized, hormonally stimulated females. As to conditions: 100 mcg/rat, progesterone 0.5 mg/rat. The protocol: Investigation of the Efficacy of the Peptides of the Invention as a Means of Stimulating the Genital and Sexual Functions
In order to confirm the efficacy as a means of stimulating the genital and sexual functions, peptides according to the invention were synthesized, in particular the tripeptide Thr-Lys-Hyp, the pentapeptide Thr-Lys-Hyp-Arg-Hyp (SEQ ID NO: 12), and the hexapeptide Thr-Lys-Hyp-Arg-Hyp-Phe (SEQ ID NO: 13), and tests were performed as to the efficacy in vivo on the relevant preclinical model (Lordoz test). Furthermore, the efficacy of the group of peptides Thr-Lys-Pro, Thr-Lys-Pro-Arg-Pro (SEQ ID NO: 6), and Thr-Lys-Pro-Arg-Pro-Phe (SEQ ID NO: 7) was also investigated.
The efficacy of the aforementioned groups of peptides was investigated in a dose of 100 mcg/rat with respect to the sexual behavior of female rats. The sexual behavior was registered over the course of 0-16 days in ovarioectomized, hormonally stimulated females in the case of direct contact with sexually active males and in the case when no such contact was possible. […] The results testify to an increase in sexual motivation under the action of the peptides Thr-Lys-Hyp, Thr-Lys-Hyp-Arg-Hyp (SEQ ID NO: 12), and Thr-Lys-Hyp-Arg-Hyp-Phe (SEQ ID NO: 13).

Where [2] appears, read: stored for 1 month at +4° C., solution 0.2 mass % peptide, 0.01 mass % benzalkonium chloride.
[3] abbreviates: stored for 1 month at +25° C., solution 0.2 mass % peptide, 0.01 mass % benzalkonium chloride.

Take “Thr-Lys-Pro-Arg-Pro-Phe (TKPRPF; not fully specified; printed as Thr-Lys-Pro-Arg-Pro-Phe) [hexapeptide described in RU2507212, comparison peptide, reference compound]”: the Single impurities turned out to be 0.054% in data set [1] (setting [2]); 0.11% in data set [1] (setting [3]); 0.09% in data set [1] (stored for 3 months at +4° C.); 0.9% in data set [1] (stored for 3 months at +25° C.); 0.5% in data set [1] (stored for 6 months at +4° C.); 1.9% in data set [1] (stored for 6 months at +25° C.). The Single impurities in data set [1] (stored for 12 months at +4° C.) came to 0.9%; in data set [1] (stored for 24 months at +4° C.), 1.6%. Moreover, the Total impurities in data set [1] (setting [2]) turned out to be 0.17%; in data set [1] (setting [3]), 0.19%; in data set [1] (stored for 3 months at +4° C.), 0.18%; in data set [1] (stored for 3 months at +25° C.) it was 1.1%; in data set [1] (stored for 6 months at +4° C.) it was 1.1%; in data set [1] (stored for 6 months at +25° C.), 3.5%. Moreover, the results for the Total impurities in data set [1] (stored for 12 months at +4° C.) and in data set [1] (stored for 24 months at +4° C.) were 1.3% and 2,9%, respectively. For the same substance, the “Number of proceptive behavior acts” value with female rats (day 0 of giving the drug) turned out to be 14 ± 4; with female rats (day 5 of giving the drug), 16 ± 4; in the data set with female rats (day 11 of giving the drug), 19 ± 4; with female rats (day 16 of giving the drug), 26 ± 4.
For Thr-Lys-Pro [reference compound], the Single impurities in data set [1] (setting [2]) came to 0.051%; in data set [1] (setting [3]), 0.06%; in data set [1] (stored for 3 months at +4° C.), 0.053%; in data set [1] (stored for 3 months at +25° C.), 0.13%; in data set [1] (stored for 6 months at +4° C.), 0.3%; in data set [1] (stored for 6 months at +25° C.), 1.7%. Further, the Single impurities in data set [1] (stored for 12 months at +4° C.) is recorded as 0.9%; in data set [1] (stored for 24 months at +4° C.), 1.2%. Further, the Total impurities was determined as 0.13% in data set [1] (setting [2]); 0.1% in data set [1] (setting [3]); 0.135% in data set [1] (stored for 3 months at +4° C.); 0.25% in data set [1] (stored for 3 months at +25° C.); 0.9% in data set [1] (stored for 6 months at +4° C.); 3.1% in data set [1] (stored for 6 months at +25° C.). The Total impurities is given as 1.7% in data set [1] (stored for 12 months at +4° C.) and 2.2% in data set [1] (stored for 24 months at +4° C.). The “Number of proceptive behavior acts” value in the data set with female rats (day 0 of giving the drug) is recorded as 14 ± 4; in the data set with female rats (day 5 of giving the drug) it was 15 ± 4; with female rats (day 11 of giving the drug), 20 ± 4; in the data set on female rats (day 16 of giving the drug) it was 28 ± 4.
